Source: US20200131270A1, “COMBINATION USE OF INHIBITOR TARGETING PD-1/PD-L1 AND COX-2 INHIBITOR” (priority 2017, published 2020)

Experiments:
[1] = system: PBMCs derived from uninfected cattle; test: mRNA expression in bovine PBMCs (real-time PCR); assay type: cell-based
Procedure: Using the synthesized cDNA as a template, real-time PCR was performed with LightCycler480 System II (Roche) in a 10 μl reaction solution containing SYBR Premix DimerEraser (TaKaRa) and 3 pmol each of the primers specific to individual genes. Then, changes in expression levels of individual genes were observed. After 45 cycles of thermal denaturation, annealing and extension, the temperature was raised from 65° C. to 95° C. at 0.1° C./sec for melting curve analysis. The melting temperatures of amplified products were measured to confirm specificity. For each sample, expression levels of genes ACTB and GAPDH were quantified as internal standards. […] Then, real-time PCR was performed using PDL1 specific primers.

canine PBMCs = test: Cytokine production from canine PBMCs stimulated with SEB and anti-CD28 (ELISA); assay type: cell-based; conditions: PGE2 2.5 μM; SEB + anti-CD28, 3 days
[2] = system: PBMCs derived from uninfected cattle; test: PBMC culture under anti-CD3/anti-CD28 stimulation: cell proliferation (CFSE) and cytokine production (ELISA); conditions: 3 days
[3] = system: PBMCs derived from uninfected cattle; test: PD-L1 protein expression in bovine PBMCs (flow cytometry); assay type: cell-based; conditions: PGE2 added, 24 hours
BLV provirus = assay type: cell-based, cattle
[4] = PGE2 25 nM, 250 nM and 2,500 nM

`CCCCC[C@H](O)/C=C/[C@H]1[C@H](O)CC(=O)[C@@H]1C/C=C\CCCC(=O)O` [PGE2, prostaglandin E2] was tested, and the “expression level of Foxp3” value ([1]; PGE2 2,500 nM, 3 days) was “significantly increased”, the “expression level of IFNγ” value ([1]; PGE2 2,500 nM, 3 days) was “significantly decreased” and the “expression level of IL-2” value ([1]; PGE2 2,500 nM, 3 days) was “significantly decreased”. The “expression level of IL-10” value ([1]; PGE2 2,500 nM, 3 days) was “significantly increased”, the “expression level of STAT3” value ([1]; PGE2 2,500 nM, 3 days) was “significantly increased” and the “expression level of TGFβ1” value ([1]; PGE2 2,500 nM, 3 days) was “significantly increased”. The “expression level of TNFα” value ([1]; PGE2 2,500 nM, 3 days) was “significantly decreased”, the “expression of PD-L1 mRNA” value ([1]; PGE2 added, 24 hours) was “significantly increased” and the “IFN-γ production from canine PBMCs” value (canine PBMCs) was “significantly decreased”. The “IL-2 production from canine PBMCs” value (canine PBMCs) was “significantly decreased”, the IFN-γ production [2, 4] was “significantly inhibited” and the “proliferation of CD4^+ cells” value [2, 4] was “significantly inhibited”. For the same compound, the “proliferation of CD8^+ cells” value [2, 4] was “significantly inhibited”, the TNF-α production ([2]; PGE2 2,500 nM) was “significantly inhibited” and the “expression of PD-L1 protein” value [3] was “significantly increased”. The “BLV provirus load in PBMCs” value (BLV provirus) was “increase significantly”.
